Test results published in patent publication US4232035A, “Carbamate pesticidal compounds compositions and methods of use” (priority 1975, dated 1980).

Assays:
Assay type in all cases: in vivo
[1] = system: root-knot nematode (Meloidogyne incognita var. acrita); experiment: Nematode Test; parameters: key: 1: severe galling; equal to untreated control; 2: moderate galling; 3: light galling; 4: very light galling; 5: no galling; conditions: 10 ml of 500 parts per million formulation per jar of soil; cucumber indicator crop, approximately three weeks
Procedure: (§1) Suspensions of the test compounds were prepared by dissolving one gram of compound in 50 milliliters of acetone in which had been dissolved 0.1 gram (10 percent of the weight of compound) of an alkylphenoxy polyethoxyethanol surfactant, as an emulsifying or dispersing agent. The resulting solution was mixed into 150 milliliters of water to give roughly 200 milliliters of a suspension containing the compound in finely divided form. The thus-prepared stock suspension contained 0.5 percent by weight of compound. The test concentrations in parts per million by weight employed in the tests described hereinbelow were obtained by appropriate dilutions of the stock suspension with water. The test procedures were as follows:
Infective migratory larvae of the root-knot nematode, (Meloidogyne incognita var. acrita) were reared in the greenhouse on roots of Rutgers variety tomato plant. Infected tomato plants were removed from the culture and the roots were chopped very finely. A small amount of inoculum from the roots was added to pint Mason jars containing approximately 180 cc of soil. The jars containing the inoculum and soil were capped and incubated for one week at room temperature. During this period eggs of the nematode hatched and the larvae forms migrated into the soil.
The test compounds were formulated by diluting the stock suspension with water to give a suspension containing 500 parts of test compound per million parts of final formulation. 10 milliliters of the test formulation was added to each of two jars for each dosage treated. As a control 10 milliliters of a water-acetone-emulsifier solution containing no test compound was also added to jars containing nematode larvae. The jars were capped and the contents thoroughly mixed on a kale mill for five minutes. The jars remained capped at room temperature for a period of 48 hours and the contents were then transferred to 3 inch pots. Subsequently, the pots were seeded to cucumber as an indicator crop and placed in the green house where they were cared for in the normal fashion for growing potted cucumber for approximately three weeks. These cucumber plants were then removed from the pots, the soil washed from the roots and the amount of galling visually rated.

[2] = system: house flies (Musca domestica, L.); experiment: Fly Bait Test; parameters: key: A: excellent control; B: partial control; C: no control; conditions: 500 parts per million bait in sugar solution; twenty four hours
Procedure: as §1
Four to six day old adult house flies (Musca domestica, L.) reared according to the specifications of the Chemical Specialties Manufacturing Association (Blue Book, McNair-Dorland Co., N.Y. 1954; pages 243-244, 261) under controlled conditions of 80°±5° F. and 50±5 percent relative humidity, were the test insects. The flies were immobilized by anesthetizing with carbon dioxide and twenty five immobilized individuals, males and females, were transferred to a cage consisting of a standard food strainer about five inches in diameter which was inverted over a wrapping-paper-covered surface. The test compounds were formulated by diluting the stock suspension with a 10 percent (by weight) sugar solution to give a suspension containing 500 parts of test compound per million parts of final formulation, by weight. Ten milliliters of the test formulation were added to a souffle cup containing a one-inch square of an absorbent cotton pad. This bait cup was introduced and centered on the blotting paper under the food strainer prior to admitting the anesthetized flies. The caged flies were allowed to feed on the bait for twenty four hours, at a temperature of 80°±5° F. and the relative humidity of 50±5 percent.

[3] = system: bean aphid (Aphis fabae Scop.); experiment: Bean Aphid Foliage Spray Test; parameters: key: A: excellent control; B: partial control; C: no control; conditions: 500 parts per million foliage spray; 24 hour holding period
Procedure: as §1
Adults and nymphal stages of the bean aphid (Aphis fabae Scop.) reared on potted dwarf nasturtium plants at 65°-70° F. and 50-70 percent relative humidity, constituted the test insects. For testing purposes, the number of aphids per pot was standardized to 100-150 by trimming plants containing excess aphids.
The test compounds were formulated by diluting the stock suspension with water to give a suspension containing 500 parts of test compound per million parts of final formulation.
The potted plants (one pot per compound tested) infested with 100-150 aphids, were placed on a revolving turntable and sprayed with 100-110 milliliters of test compound formulation by use of a DeVilbiss spray gun set at 40 psig. air pressure. This application, which lasted 25 seconds, was sufficient to wet the plants to run-off. As a control, 100-110 milliliters of a water-acetone-emulsifier solution containing no test compound were also sprayed on infested plants. After spraying, the pots were placed on their sides on a sheet of white standard mimeograph paper which had been previously ruled to facilitate counting. Temperature and humidity in the test room during the 24 hour holding period were 65°-70° F. and 50-70 percent, respectively. Aphids which fell onto the paper and were unable to remain standing after being uprighted were considered dead. Aphids remaining on the plants were observed closely for movement and those which were unable to move the length of the body upon stimulation by prodding were considered dead. Percent mortality was recorded for various concentration levels.

[4] = system: Mexican bean beetle (Epilachna varivestis, Muls.); experiment: Mexican Bean Beetle Leaf Spray Test; parameters: key: A: excellent control; B: partial control; C: no control; conditions: 500 parts per million leaf spray; fourth instar larvae; three days
Procedure: as §1
Fourth instar larvae of the Mexican bean beetle (Epilachna varivestis, Muls.), reared on Tendergreen bean plants at a temperature of 80°±5° F. and 50±5 percent relative humidity, were the test insects.
The test compounds were formulated by diluting the stock suspension with water to give a suspension containing 500 parts of test compound per million parts of final formulation. Potted Tendergreen bean plants of standard height and age were placed on a revolving turntable and sprayed with 100-110 milliliters of test compound formulation by use of a DeVilbiss spray gun set at 10 psig air pressure. This application, which lasted 25 seconds, was sufficient to wet plants to run-off. As a control, 100-110 milliliters of a water-acetone-emulsifier solution containing no test compound were also sprayed on infested plants. When dry, the paired leaves were separated and each was placed in a 9 centimeter Petri dish lined with moistened filter paper. Five randomly selected larvae were introduced into each dish, and the dishes were closed. The closed dishes were labeled and held at a temperature of 80°±5° F. for three days. Although the larvae could easily consume the leaf within 24 to 48 hours, no more food was added. Larvae which were unable to move the length of the body, even upon stimulation, were considered dead.

[5] = system: southern armyworm (Prodenia eridania, (Cram.)); experiment: Southern Armyworm Leaf Spray Test; parameters: key: A: excellent control; B: partial control; C: no control; conditions: 500 parts per million leaf spray; three days
Procedure: as §1
Larvae of the southern armyworm (Prodenia eridania, (Cram.)), reared on Tendergreen bean plants at a temperature of 80°±5° F. and a relative humidity of 50±5 percent, constituted the test insects.
The test compounds were formulated by diluting the stock suspension with water to give a suspension containing 500 parts of test compound per million parts of final formulation. Potted Tendergreen bean plants of standard height and age were placed on a revolving turntable and sprayed with 100-110 milliliters of test compound formulation by use of a DeVilbiss spray gun set at 10 psig air pressure. This application, which lasted 25 seconds, was sufficient to wet plants to run-off. As a control, 100-110 milliliters of a water-acetone-emulsifier solution containing no test compound were also sprayed on infested plants. When dry, the paired leaves were separated and each one was placed in a 9 centimeter Petri dish lined with moistened filter paper. Five randomly selected larvae were introduced into each dish and the dishes were closed. The closed dishes were labeled and held at 80°-85° F. for three days. Although the larvae could easily consume the whole leaf within twenty-four hours, no more food was added. Larvae which were unable to move the length of the body, even upon stimulation by prodding, were considered dead. Percent mortality was recorded for various concentration levels.

[6] = system: two-spotted mite (Tetranychus urticae Koch); experiment: Mite Foliage Spray Test; parameters: key: A: excellent control; B: partial control; C: no control; conditions: 500 parts per million foliage spray; six days
Procedure: as §1
Adults and nymphal stages of the two-spotted mite (Tetranychus urticae Koch), reared on Tendergreen bean plants at 80±5 percent relative humidity, were the test organisms. Infested leaves from a stock culture were placed on the primary leaves of two bean plants six to eight inches in height, growing in a two-and-a-half inch clay pot. 150-200 Mites, a sufficient number for testing, transferred from the excised leaves to the fresh plants in a period of twenty four hours. Following the twenty four hour transfer period, the excised leaves were removed from the infested plants. The test compounds were formulated by diluting the stock suspension with water to give a suspension containing 500 parts of test compound per million parts of final formulation. The potted plants (one pot per compound) were placed on a revolving turntable and sprayed with 100-110 milliliters of test compound formulation by use of a DeVilbiss spray gun set at 40 psig. air pressure. This application, which lasted 25 seconds, was sufficient to wet the plants to run-off. As a control, 100-110 milliliters of a water solution containing acetone and emulsifier in the same concentrations as the test compound formulation, but containing no test compound, were also sprayed on infested plants. The sprayed plants were held at 80±5 percent relative humidity for six days, after which a mortality count of motile forms was made. Microscopic examination for motile forms was made on the leaves of the test plants. Any individual which was capable of locomotion upon prodding was considered living.

Structure (SMILES) | Nematodes, nematocidal toxicity rating (galling) [1] | H. Fly, pesticidal activity rating [2] | Aphid, pesticidal activity rating [3] | M. Bean Beetle, pesticidal activity rating [4] | S. Armyworm, pesticidal activity rating [5] | Mite, pesticidal activity rating [6]
CN(SSc1ccc(C(C)(C)C)cc1)C(=O)ON=C1CSCCS1 | 4 | A | A | A | A | A
CN(SSc1ccc(C(C)(C)C)cc1)C(=O)ON=C1SC(C)(C)C(=O)N1C | 1 | C | C | A | A | C
CC(C)SSN(C)C(=O)ON=C1SC(C)(C)C(=O)N1C | 1 | A | A | A | A | C
CCCCSSN(C)C(=O)ON=C1SC(C)(C)C(=O)N1C | 5 | A | A | A | A | A
CC1OCSC1=NOC(=O)N(C)SSc1ccc(Cl)cc1 (stereo not drawn) | 1 | A | A | A | A | A
